Assays:
Her-2 receptor (human) = Her-2 receptor (human) (UniProt P04626); assay: cell-based or functional assay
KB cells [1] = assay: In vitro PDT cell killing (Cytotox-96), antigen-negative cells; type: cell-based, human; conditions: 30 min incubation, laser light 2 min, 1.4 J/cm^2, cell kill assay after 48 hours
Experimental: (§1) • 1. […] The flask was incubated at 37° C., 5% CO2 for 15 mins or until the cells had detached from the flask. The cells were then placed in a 50 ml Falcon tube and the trypsin deactivated by adding 15 ml DMEM or McCoy's medium. • 3. Cells (20 μl) were taken out of the tube and placed on a haemocytometer for counting. The remaining cells were harvested at 1800 g for 10 min at room temperature and the pellet gently resuspended in 1 ml of DMEM or McCoy's medium. The cells were thoroughly resuspended and a further 19 ml of DMEM or McCoy's medium added. The cells were diluted in DMEM or McCoy's medium accordingly to give 2×10^6 cells/ml. Cells (50 μl) were then added to each well of a 96 well plate and incubated overnight at 37° C. and 5% CO2. • 4. […] Cells were washed once with PBS and 50 μl of the conjugate added to wells in quadruplicate. Control wells were also included (wells with conjugate added but not exposed to light, and wells with neither conjugate added nor exposed to light). […] Cells were incubated in the conjugate or free PS (concentration varies) for 30 min at 37° C., 5% CO2 and then washed 3 times with PBS. […] The PBS was removed from each well and 100 μl of DMEM or McCoy's medium added. The plates were loosely wrapped in foil, but covered adequately so that no ambient light could enter.

[2] = tested on: vision loss associated with AMD; conditions: PDT compared to the placebo control; cited from earlier work
SKOV3 cells = assay: In vitro PDT cell killing (Cytotox-96), antigen-positive cells; type: cell-based, human; conditions: 30 min incubation, laser light 2 min, 1.4 J/cm^2, cell kill assay after 48 hours
Experimental: as §1

[3] = tested on: Basal cell cancer of skin; conditions: clinical PDT, topical; cited from earlier work
[4] = tested on: Barrett's oesophagus cancer; conditions: clinical PDT, systemic; cited from earlier work
KB cells [5] = assay: Immunofluorescent microscopy, HER-2-negative cells; type: cell-based, human; conditions: 1 hour incubation; images and emission spectra
Experimental: FIG. 24—Immunofluorescent microscopy of C6.5-PPa photo-immunoconjugate Antigen negative KB cells (A-D) or antigen positive SKOV3 cells (E-J) were incubated with free PPa or C6.5-PPa photo-immunoconjugate for 1 hour. Images and emission spectra were recorded.
• 1. Round coverslips were washed in ethanol and rinsed in PBS. Coverslips were then placed in 12-well tissue culture plates. • 2. SKOV3 cells were trypsinised and washed with PBS. The cell pellet was resuspended in McCoy's media and cells were seeded onto the coverslips at 2×10^5 cells/ml. The cells were incubated overnight at 37° C. and 5% CO2. • 3. The coverslips with the adherent cells were rinsed carefully in PBS and either C6-PPa or PBS was added to the wells. The cells were incubated at 37° C. and 5% CO2 for 30 minutes after which time they were washed carefully with PBS. • 4. The cells were fixed onto the coverslips by incubating in 2 ml 4% paraformaldehyde for 60 minutes at room temperature. After this time, the coverslips were washed with PBS and inverted cell-side down onto glass slides. The edges of the coverslips were then sealed using nail varnish. • 5. Fluorescence imaging was then performed using an Ar+ laser (418 nm) as excitation source, using a Leica laser scanning confocal microscope, images are shown in FIGS. 20 and 24, and the emission spectrum is shown in FIGS. 21 and 24.

[6] = Fluorescence of conjugates in PBS (excitation 410 nm, emission 680 nm); type: physicochemical; conditions: measured in PBS buffer
Experimental: • 1. Serial dilutions (halving concentrations) of the conjugates were made in PBS and the fluorescence was measured at an excitation wavelength of 410 nm and an emission wavelength of 680 nm. • 2. These were compared to free PPa in PBS. Examples are shown for c6.5 scFv-PPa (FIG. 11) and MFE scFv-PPA (+/− benzoic acid) (FIG. 12)

Oral cancer = conditions: clinical PDT, over 5-53 months; cited from earlier work
[7] = tested on: Chest wall recurrence in breast cancer; conditions: clinical PDT; cited from earlier work
[8] = in vivo; cited from earlier work
Bladder cancer = conditions: clinical PDT; cited from earlier work
Barrett's mucosal cancer = conditions: clinical PDT; cited from earlier work

C6.5 scFv-Verteporfin (Visudyne™) conjugate
IC50 of in vitro PDT cell killing on antigen-positive SKOV3 cells (Her-2 receptor (human)): 2.2 µM

benzoporphyrin derivative mono acid [Verteporfin (Visudyne™)]
IC50 (KB cells [1]): 10 µM | recovering vision loss associated with AMD [2]: more effective | IC50 (SKOV3 cells): 15.3 µM

NCC(=O)CCC(=O)O [ALA, 5-aminolaevulinic acid]
complete response [3]: 90% complete response | High-grade dysplasia [4]: erradicated in all patients

Pyropheophorbide a [PPa]
uptake of PPa, KB cells vs SKOV3 cells (KB cells [5]): over 2 fold | fluorescence / photophysical properties [6]: does not fluoresce significantly

Dihematoporphyrin ether
complete response (Oral cancer): 87% complete response | complete response [7]: 20% complete response, | partial response [7]: 45% partial response

Oc1cccc(-c2c3nc(c(-c4cccc(O)c4)c4ccc([nH]4)c(-c4cccc(O)c4)c4nc(c(-c5cccc(O)c5)c5ccc2[nH]5)CC4)C=C3)c1 [Foscan™, meta-tetrahydroxyphenyl chlorin]
skin photosensitivity [8]: about 2 weeks

Hematoporphyrin derivative
alive after 5 years (Bladder cancer): 30% alive after 5 years | complete response (Bladder cancer): 74% complete response,

porfimer sodium
conversion to normal epithelium (Barrett's mucosal cancer): 75% conversion to normal | tumours (Barrett's mucosal cancer): eliminated
